Patent publication US20250135006A1, “AMPHIPHILIC TLR7/8 ADJUVANTS AND USES THEREOF” (Pfizer Inc., priority 2023, published 2025)

Tests used:
[1] = target: T1, human toll like receptor 8 (hTLR8) (Homo sapiens, UniProt Q9NR97); experiment: hTLR8 in-vitro functional assay (HEK-Blue hTLR8 SEAP reporter); type: cell-based; settings: HEK-Blue hTLR8 cells, overnight incubation
T1 construct: host or cells: HEK293 (HEK-Blue hTLR8)
T1 sequence (Q9NR97 27-1041): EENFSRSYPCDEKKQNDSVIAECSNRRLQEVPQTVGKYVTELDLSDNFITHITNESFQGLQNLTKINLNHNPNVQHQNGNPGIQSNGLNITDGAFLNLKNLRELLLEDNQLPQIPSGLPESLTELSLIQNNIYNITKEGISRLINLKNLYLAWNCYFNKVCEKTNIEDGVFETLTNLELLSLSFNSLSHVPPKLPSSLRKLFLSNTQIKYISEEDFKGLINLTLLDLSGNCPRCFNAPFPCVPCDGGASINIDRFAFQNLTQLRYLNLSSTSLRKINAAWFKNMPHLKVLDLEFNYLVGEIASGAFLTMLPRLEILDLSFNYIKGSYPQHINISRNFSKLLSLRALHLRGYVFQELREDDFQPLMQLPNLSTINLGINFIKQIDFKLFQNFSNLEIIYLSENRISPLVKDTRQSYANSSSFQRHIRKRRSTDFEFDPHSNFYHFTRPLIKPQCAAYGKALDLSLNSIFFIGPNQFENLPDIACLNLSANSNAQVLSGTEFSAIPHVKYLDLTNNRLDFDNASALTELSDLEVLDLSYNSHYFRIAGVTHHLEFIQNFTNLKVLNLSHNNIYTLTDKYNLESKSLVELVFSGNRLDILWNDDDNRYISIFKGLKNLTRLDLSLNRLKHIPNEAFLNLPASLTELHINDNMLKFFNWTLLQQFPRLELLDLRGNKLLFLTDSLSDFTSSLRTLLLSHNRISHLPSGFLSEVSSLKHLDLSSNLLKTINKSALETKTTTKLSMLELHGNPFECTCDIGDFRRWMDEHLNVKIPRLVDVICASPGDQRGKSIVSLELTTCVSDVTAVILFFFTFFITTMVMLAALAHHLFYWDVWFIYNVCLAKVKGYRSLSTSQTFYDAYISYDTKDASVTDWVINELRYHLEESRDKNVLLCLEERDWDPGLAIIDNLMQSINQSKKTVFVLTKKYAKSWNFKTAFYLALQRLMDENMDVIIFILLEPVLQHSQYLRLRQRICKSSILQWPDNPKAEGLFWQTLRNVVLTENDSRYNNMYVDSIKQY

[2] = tested on: S. pneumoniae serotype 3; type: in vivo, female Swiss-Webster mice; settings: mouse

For `CCCCc1nc2c(N)nc3cc(CCCN4CCN(C(=O)CCOCCOCCOCCOCCOCCOCCOCCOCCOCCOCCOCCOCCOCCOCCOCCOCCOCCOCCOCCOCCOCCOCCOCCOCCNC(=O)CCOCCOCCOCCOCCNC(=O)CCCOc5c(C)c(C)c6c(c5C)CC[C@@](C)(CCC[C@H](C)CCC[C@H](C)CCCC(C)C)O6)CC4)ccc3c2n1CC(C)(CO)CO` [Compound 2, N-{75-[4-(3-{4-amino-2-butyl-1-[3-hydroxy-2-(hydroxymethyl)-2-methylpropyl]-1H-imidazo[4,5-c]quinolin-7-yl}propyl)piperazin-1-yl]-75-oxo-3,6,9,12,15,18,21,24,27,30,33,36,39,42,45,48,51,54,57,60,63,66,69,72-tetracosaoxapentaheptacont-1-yl}-17-oxo-20-({(2R)-2,5,7,8-tetramethyl-2-[(4R,8R)-4,8,12-trimethyltridecyl]-3,4-dihydro-2H-chromen-6-yl}oxy)-4,7,10,13-tetraoxa-16-azaicosan-1-amide], the EC50 [1] was 5.03 µM, the “OPA geometric mean titers (GMT)” value ([2]; 0.1 μg S. pneumoniae serotype 3-CRM197 antigen with adjuvant (2 nmol; AlPO4 100 μg), IM weeks 0 and 3, sera week 5) was 610 and the “OPA geometric mean titers compared with reference adjuvants” value ([2]; S. pneumoniae serotype 3 antigen, versus aluminum phosphate and free TLR 7/8 agonist) was “higher average OPA geometric mean titers than aluminum phosphate, as well as the free TLR 7/8 agonist molecule”.
